# Measurements from ChEMBL document CHEMBL3879892, “Small molecule inhibition of PDZ-domain interaction” (2011).
# Calls of active or inactive are those of the source. No cut-off for these calls is given here.
# Assays:
# [1] = test system: LOX; assay: Inhibition of Dvl PDZ domain interaction with Fz protein in human LOX cells assessed as induction of apoptosis at 10 uM after 3 days by annexin V-FITC staining-based flow cytometry (reference value: 8.81 to 10.85%); type: cell-based; parameters: scale not given: the % may be the effect or the level left
# [2] = test system: NCI-H460; assay: Inhibition of Dvl PDZ domain interaction with Fz protein in human NCI-H460 cells assessed as induction of apoptosis at 10 uM after 3 days by annexin V-FITC staining-based flow cytometry (reference value: 7.59 to 10.24%); type: cell-based; parameters: scale not given: the % may be the effect or the level left
# [3] = Antitumor activity against human LOX cells xenografted in immune deficient nude mouse assessed as tumor growth inhibition at 50 mg/kg, ip administered for 14 days measured after 2 weeks post last dose relative to control; type: functional; details: 336 h, read-out: TGI
# [4] = Antitumor activity against human NCI-H460 cells xenografted in immune deficient nude mouse assessed as tumor growth inhibition at 50 mg/kg, ip administered for 14 days measured after 2 weeks post last dose relative to control; type: functional; details: 336 h, read-out: TGI
# [5] = molecular target: T1, Membrane-associated guanylate kinase, WW and PDZ domain-containing protein 3 (Homo sapiens) (UniProt Q5TCQ9); assay: Inhibition of fluorescein labeled PFDEDQHTQITWV-COOH interaction with GST-fused MAGI-3 second PDZ domain (unknown origin) expressed in Escherichia coli BL21 (DE3) by fluorescence polarization assay
# T1 sequence (whole entry): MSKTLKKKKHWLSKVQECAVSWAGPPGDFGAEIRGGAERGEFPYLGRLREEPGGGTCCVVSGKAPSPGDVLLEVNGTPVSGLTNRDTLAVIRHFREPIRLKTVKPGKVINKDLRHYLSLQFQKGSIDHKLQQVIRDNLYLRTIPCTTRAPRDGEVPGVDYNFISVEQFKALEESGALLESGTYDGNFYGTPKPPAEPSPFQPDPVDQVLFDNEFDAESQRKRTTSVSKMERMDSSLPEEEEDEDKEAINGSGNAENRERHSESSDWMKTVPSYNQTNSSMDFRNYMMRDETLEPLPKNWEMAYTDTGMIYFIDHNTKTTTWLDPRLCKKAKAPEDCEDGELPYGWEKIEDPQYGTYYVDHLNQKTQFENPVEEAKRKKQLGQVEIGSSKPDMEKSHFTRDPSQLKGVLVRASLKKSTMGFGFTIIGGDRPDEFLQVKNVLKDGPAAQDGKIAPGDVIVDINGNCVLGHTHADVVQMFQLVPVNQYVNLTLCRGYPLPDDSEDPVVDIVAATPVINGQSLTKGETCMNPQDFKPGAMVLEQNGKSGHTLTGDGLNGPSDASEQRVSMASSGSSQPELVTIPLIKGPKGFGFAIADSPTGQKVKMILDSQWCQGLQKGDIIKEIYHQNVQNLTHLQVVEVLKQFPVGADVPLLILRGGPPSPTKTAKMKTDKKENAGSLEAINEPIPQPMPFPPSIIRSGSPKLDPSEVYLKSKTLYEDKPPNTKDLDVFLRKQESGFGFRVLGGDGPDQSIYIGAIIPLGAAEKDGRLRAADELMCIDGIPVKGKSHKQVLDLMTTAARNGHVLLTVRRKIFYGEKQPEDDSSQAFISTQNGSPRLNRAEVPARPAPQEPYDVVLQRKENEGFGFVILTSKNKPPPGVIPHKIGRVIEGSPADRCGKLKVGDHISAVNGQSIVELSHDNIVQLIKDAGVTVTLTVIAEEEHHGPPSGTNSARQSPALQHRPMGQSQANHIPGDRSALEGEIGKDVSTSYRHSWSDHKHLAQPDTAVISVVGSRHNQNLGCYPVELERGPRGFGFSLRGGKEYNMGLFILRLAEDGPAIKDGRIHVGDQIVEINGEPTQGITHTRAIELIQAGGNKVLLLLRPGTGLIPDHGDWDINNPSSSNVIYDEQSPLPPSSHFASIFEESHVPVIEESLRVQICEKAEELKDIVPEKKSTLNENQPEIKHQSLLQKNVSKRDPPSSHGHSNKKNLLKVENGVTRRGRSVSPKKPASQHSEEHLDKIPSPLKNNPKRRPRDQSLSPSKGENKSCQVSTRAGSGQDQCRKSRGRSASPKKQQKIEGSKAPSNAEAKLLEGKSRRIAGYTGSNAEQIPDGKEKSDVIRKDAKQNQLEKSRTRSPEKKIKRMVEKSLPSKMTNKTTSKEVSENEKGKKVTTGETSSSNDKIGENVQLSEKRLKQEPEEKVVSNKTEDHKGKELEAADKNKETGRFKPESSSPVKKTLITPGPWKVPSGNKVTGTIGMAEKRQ
smiles,measurement,setting,value
CCCCC(O)c1[nH]c2cc(C)c(C(=O)O)cc2c1CCc1ccccc1 (centres undefined),Activity,[1],13.4 to 18.5%
same,Activity,[2],14.6 to 28.3%
same,inhibition in vivo at 50 mg/kg,[3],66 to 82%
same,inhibition in vivo at 50 mg/kg,[4],20 to 34%
same,inhibition,[5],Active
Cc1cc2[nH]c(C(O)CCc3ccccc3)c(CCc3ccccc3)c2cc1C(=O)O (centres undefined),Activity,[1],34.7%
same,Activity,[2],36.7%
Cc1cc2[nH]c(C(O)c3ccccc3)c(CCCc3ccccc3)c2cc1C(=O)O (centres undefined),Activity,[1],65.3%
same,Activity,[2],37%
